US20130079394A1, “Indirect modeling of new repellent molecules active against insects, acarids, and other arthropods” (CNRS (CENTRE NATIONAL RECHERCHE SCIENTIFIQUE), priority 2011, published 2013)

System: not given
Experiment: not given
Settings: reported by US EPA (RED); cited from earlier work

Structure (SMILES)	deaths among DEET-associated seizure cases [deaths]
CCN(CC)C(=O)c1cccc(C)c1 [DEET, N,N-Diethyl-meta-toluamide]	4

System: flies
Experiment: Repellency index of coumarin derivatives evaluated in vivo (index from −1 to 1, function of a number of flies)
Parameters: key to Repellency Index: index from −1 to 1, 1 = highly repellent
Settings: experimental index ranging from −1 to 1 (1 = highly repellent); measurement error about ±0.1; data set of USSN 61,501,485
Protocol: Up until now, all existing models for repellency have been based on protection time value, which is different for each. Moreover, the environmental parameters in which the animals are studied are frequently different. As a consequence, data produced using different models cannot be combined/compared. […] The numerical value obtained was not a protection time but rather an index ranging from −1 to 1 (with 1 being highly repellent). This number was calculated for each experiment and is function of a number of flies.
To minimize the deleterious effects of these potentially confounding factors, “repellency classes” were established. Based on the repellency index values, the dataset was divided into 2, 3, 4 or 5 repellency class subsets, in order to reduce the difficulty of modeling the property of slightly repellent molecules. For example, in the four classes' models, the thresholds between the classes are defined as follow: […]

Structure (SMILES)	Repellency Index
CCCCCCCCN(CCCCCCCC)C(=O)c1ccc2ccc(=O)oc2c1 [EV 06096]	0.91
CCCCCOc1cc(=O)oc2ccccc12 [EV 06136]	0.77
O=C(c1ccc2ccc(=O)oc2c1)N1CCCCC1 [EV 05118]	−0.10
CCC(C)OC(=O)COc1ccc2ccc(=O)oc2c1 (stereo not drawn) [EV 06178]	0.25
CCC(C)C(=O)Oc1ccc2ccc(=O)oc2c1 (stereo not drawn) [EV 04030]	−0.10
CC1CCCCN1C(=O)c1ccc2ccc(=O)oc2c1 (stereo not drawn) [EV 05144]	0.60
CCCCCCCCOc1ccc2ccc(=O)oc2c1 [EV 06144]	0.83
CCCCCCC(C)Oc1ccc2ccc(=O)oc2c1 (stereo not drawn) [EV 06148]	0.92
CCC(C)CC(=O)Oc1ccc2ccc(=O)oc2c1 (stereo not drawn) [EV 04062]	0.04
CC(C)Oc1ccc2ccc(=O)oc2c1 [EV 04054]	0.66
CC(C)COc1ccc2oc(=O)ccc2c1 [EV07072]	0.98
CC(C)COc1cc(=O)oc2ccccc12 [EV07070]	0.94
CCC(CC)Oc1ccc2oc(=O)ccc2c1 [EV 06018]	0.43
CC(C)COC1CCC2CCC(=O)OC2C1 (stereo not drawn) [EV 04188]	0.65
CCCC(C)Oc1cc(=O)oc2ccccc12 (stereo not drawn) [EV 06098]	0.95
C=CCOc1ccc2ccc(=O)oc2c1 [EV 04032]	0.19
CCC(C)NC(=O)c1ccc2ccc(=O)oc2c1 (stereo not drawn) [EV 06166]	0.25
CCCCOc1ccc2ccc(=O)oc2c1 [EV 04036]	−0.06
CCCCN(CCCC)C(=O)COc1ccc2ccc(=O)oc2c1 [EV 05120]	0.71

Structure (SMILES)	Repellency Index
C=C(C)C1CC=C(COc2ccc3ccc(=O)oc3c2)CC1 (stereo not drawn) [EV 04090]	0.40
CCCCCCOc1ccc2ccc(=O)oc2c1 [EV 06110]	0.78
CCCC(C)Oc1ccc2ccc(=O)oc2c1 (stereo not drawn) [EV 06044]	0.92
CC1CCCCN1C(=O)COc1ccc2ccc(=O)oc2c1 (stereo not drawn) [EV 05134]	0.78
CC(=O)OC(C)C(=O)Oc1ccc2ccc(=O)oc2c1 (stereo not drawn) [EV 04122]	−0.36
CCC(CC)Oc1ccc2ccc(=O)oc2c1 [EV 04114]	0.86
O=C(COc1ccc2ccc(=O)oc2c1)N1CCCCC1 [EV 05088]	0.07
CCC(C)Oc1cc(=O)oc2ccccc12 (stereo not drawn) [EV 06088]	0.82
CC(C)C(C)Oc1cc(=O)oc2ccccc12 (stereo not drawn) [EV 06128]	0.34
CC1CCCCC1Oc1ccc2ccc(=O)oc2c1 (stereo not drawn) [EV 04084]	−0.01
CCN(CC)C(=O)COc1ccc2ccc(=O)oc2c1 [EV 05096]	0.80
CCC(CC)Cc1cc(=O)oc2ccccc12 [EV 06062]	0.97
CCCCCCCCN(CCCCCCCC)C(=O)COc1cc(=O)oc2ccccc12 [EV 07068]	0.98
CCC(C)Oc1ccc2ccc(=O)oc2c1 (stereo not drawn) [EV 04058]	0.76
CCC(CC)OC(=O)COc1ccc2ccc(=O)oc2c1 [EV 05174]	0.69
CCC(C)Oc1ccc2oc(=O)ccc2c1 (stereo not drawn) [EV 06068]	0.88
CCC(C)OC(=O)N1CCCCC1CCOc1ccc2ccc(=O)oc2c1 (stereo not drawn) [EV 04042]	0.43
CCC(C)COC(=O)COc1ccc2ccc(=O)oc2c1 (stereo not drawn) [EV 06058]	0.52
CCCC(C)Oc1ccc2oc(=O)ccc2c1 (stereo not drawn) [EV 06154]	0.93

Structure (SMILES)	Repellency Index
CCCCCCCCN(CCCCCCCC)C(=O)COc1ccc2ccc(=O)oc2c1 [EV 06092]	0.35
CCCCCCC(C)Oc1cc(=O)oc2ccccc12 (stereo not drawn) [EV07078]	0.91
CC(C)CCOc1cc(=O)oc2ccccc12 [EV 06140]	0.84
CCCCCOc1ccc2ccc(=O)oc2c1 [EV 06026]	0.88
CCCCC(CC)C(=O)Oc1ccc2ccc(=O)oc2c1 (stereo not drawn) [EV 04016]	0.11
CC(C)CCOc1ccc2ccc(=O)oc2c1 [EV 06036]	0.73
COC(=O)/C=C/c1ccccc1O [EV 05056]	0.40
CC(C)C(C)Oc1ccc2ccc(=O)oc2c1 (stereo not drawn) [EV 06028]	0.88
CC(C)(C)COc1ccc2ccc(=O)oc2c1 [EV 06162]	−0.55
C/C=C(\C)C(=O)Oc1ccc2ccc(=O)oc2c1 [EV 04024]	0.26
CCC(C)OC(=O)COc1ccc2ccc(=O)oc2c1 (stereo not drawn) [EV 06046]	0.08
CCN(CC)C(=O)c1ccc2ccc(=O)oc2c1 [EV 05084]	0.30
CCCCN(CCCC)C(=O)c1ccc2ccc(=O)oc2c1 [EV 05138]	0.72
CCC(C)Oc1ccc2ccc(=O)oc2c1 (stereo not drawn) [EV 06188]	0.87
CCC(C)Oc1ccc2ccc(=O)oc2c1 (stereo not drawn) [EV 04070]	0.83
CCC(C)COc1ccc2ccc(=O)oc2c1 (stereo not drawn) [EV 04094]	0.73
CCC(C)OC(=O)c1ccc2ccc(=O)oc2c1 (stereo not drawn) [EV 05178]	0.71
CCC(CC)OC(=O)c1ccc2ccc(=O)oc2c1 [EV 05162]	0.62

Same assay, conditions: values used as class thresholds

Structure (SMILES)	repellency index (RI) of reference repellents
CCN(CC)C(=O)c1cccc(C)c1 [DEET, N,N-Diethyl-meta-toluamide]	0.83
CCC(C)OC(=O)N1CCCCC1CCO (stereo not drawn) [Picaridine, reference compound]	0.70

System: mosquitoes
Experiment: not given
Settings: absence of body odor attractants such as 1-octen-3-ol, lactic acid, or carbon dioxide; cited from earlier work

Structure (SMILES)	repellent activity in a behavioral test
CCN(CC)C(=O)c1cccc(C)c1 [DEET, N,N-Diethyl-meta-toluamide]	strong repellent activity
